For experiment [1], the target named is SUR1-Y1353*/Kir6.2 (NBS2 of SUR1) (Homo sapiens, UniProt Q09428, Y1353X). Put plainly: FRET binding of TNP-nucleotides to ANAP-labeled KATP in unroofed membrane fragments. The following applies: 10 mM unlabeled nucleotide. Here is the method: Unroofed membranes were prepared using a modification of a protocol from the Heuser laboratory ([Heuser, 2000]; [Usukura et al., 2012]; [Zagotta et al., 2016]). Briefly, a coverslip containing adherent cells was removed from the cell culture medium and a small piece (0.5–1 cm) was broken off using jewelers forceps (#5) and washed in phosphate buffered saline (PBS, Thermo Fisher Scientific) diluted 1:3 in deionized water. Cells were exposed 3 × 10 s to a solution of 0.01% poly-L-lysine (Sigma) with intervening washes in diluted PBS to adhere them more firmly to the coverslips. The coverslip fragment was then placed in a 30 mm culture dish filled with 2–3 mL of 1/3X PBS and sonicated very briefly (~100 ms) using a probe sonicator (Vibra-cell; Newtown, CT), leaving behind adherent plasma membrane and sometimes additional cellular material. The unroofed fragments in our experiments were sometimes visible under bright-field illumination, a potential result of our modified ‘unroofing’ procedure. Morphologically, such cell fragments resemble the ‘partially unroofed’ cells identified by Usukura et al. ([Usukura et al., 2012]) Cells cultured on poly-D-lysine coated FluoroDishes were unroofed in diluted PBS with no additional poly-L-lysine treatment. This procedure yielded a higher percentage of completely unroofed plasma membranes (i.e. nearly invisible with brightfield illumination).
Unroofed membrane fragments were imaged directly on FluoroDishes (FD35-PDL-100, World Precision Instruments) or on broken coverslips placed in a FluoroDish (FD3510, World Precision instruments) using a Nikon TE2000-U microscope equipped with a 40x (S Fluor, 1.3 NA; Nikon, Kingston Upon Thames, UK) or 100x (Apo TIRF, 1.49 NA, Nikon) oil-immersion objective and low-fluorescence immersion oil (MOIL-30, Olympus; Southend-on-Sea, UK) or a 60x water immersion objective (Plan Apo VC, 1.20 NA, Nikon). ANAP was excited using a ThorLabs LED source (LED4D067) at 385 nm connected to the microscope using a liquid light guide in series with a 390/18 nm band-pass filter (MF390-18, ThorLabs; Newton, NJ) and MD416 dichroic (ThorLabs). For imaging, emitted light was filtered through a 479/40 nm band-pass filter (MF479-40, ThorLabs). GFP-tagged constructs were imaged using a similar setup with excitation at 490 nm, a 480/40 band-pass excitation filter (Chroma; Bellows Falls, VT), a DM505 dichroic mirror (Chroma), and 510 nm long-pass emission filter (Chroma). All images were acquired using a PIXIS 400B CCD camera (Princeton Instruments; Trenton, NJ). For spectroscopy, ANAP was excited as above, but emitted light was passed through a 400 nm long-pass filter (FEL0400, ThorLabs) and directed through the slit of an Isoplane 160 spectrometer (300 g/mm grating; Princeton Instruments) in series with the camera. The acquired images retained spatial information in the y-dimension, with the x-dimension replaced by wavelength (Figure 1—figure supplement 1a). Exposure times were typically 100 ms for brightfield images, 1–10 s for steady-state spectra and 1–5 s for time-course experiments.
To prevent accumulation of fluorescent nucleotides in the bath, FluoroDishes were perfused with either (in mM) 140 KCl, 20 NaCl, 10 MgCl2, 10 HEPES pH 7.2 with NaOH or 140 KCl, 20 NaCl, 1 EDTA, 10 HEPES pH 7.2 with NaOH using a peristaltic pump (Ismatec; Wertheim, Germany). Unroofed membranes were directly perfused with nucleotides using an 8-channel µFlow perfusion system (ALA Scientific Instruments; Farmingdale, NY). Solution change with the µFlow was rapid (τ = 0.73 s±0.02 s, n=5) as measured from single exponential fits to wash-out of 50 µM tetramethylrhodamine-5-maleimide (TMRM) after switching to a solution with no TMRM. TMRM was excited with a 565 nm LED with a D540/25X band-pass filter (Chroma) and DM565 dichroic mirror (Chroma). Emitted light was collected through a D605/55M band-pass filter (Chroma). […]

Experiment [2] relates to SUR1-Y1353*/Kir6.2-G334D. In words: Currents in inside-out patches. Type of experiment: biochemical, Homo sapiens. The following applies: co-expressed with pANAP and pERF1-E55D. Here is the method: Currents were recorded from inside-out membrane patches excised from transfected HEK-293T cells. Pipettes were pulled to a resistance of 1–5 MΩ and filled with an extracellular solution containing (in mM) 140 KCl, 1.2 MgCl2, 2.6 CaCl2, and 10 HEPES, pH 7.4 or 140 KCl, 1 EGTA, 10 HEPES, pH 7.3. The intracellular (bath) solutions contained either (in mM) 107 KCl, 2 MgCl2, 1 CaCl2, 10 EGTA, and 10 HEPES, pH 7.2 for experiments showing nucleotide-dependent activation or 140 KCl, 1 EDTA, 1 EGTA, 10 HEPES pH 7.3 for experiments showing nucleotide-dependent inhibition. Nucleotides were added as indicated. Patches were perfused with an 8-channel µFlow perfusion system. Data were acquired at a holding potential of −60 mV using an Axopatch 200B amplifier and Digidata 1322A digitizer with pClamp 9.0 software (Molecular Devices). Currents were digitized at 10 kHz and low-pass filtered at 1 kHz. KATP channels run down in excised patches (reviewed by Proks et al.) ([Proks et al., 2016]). For inhibitory concentration-response relationships, rundown was corrected by alternating test nucleotide solutions with nucleotide-free (control) solutions and expressing the test currents as a fraction of the average of the control currents before and after the test solution. […]

Each structure is given as a SMILES string.

As to `Nc1ncnc2c1ncn2[C@@H]1O[C@H](COP(=O)([O-])OP(=O)([O-])O)[C@@H](O)[C@H]1O.[Mg+2]` [MgADP], in experiment [1], the “ANAP fluorescence intensity relative to the original peak” value came out at 101 ± 2%. Also, the effect on currents entry in experiment [2] is recorded as “no activation”.

(Values after article PMC6400584, “Activation mechanism of ATP-sensitive K^+ channels explored with real-time nucleotide binding” (eLife, 2019).)
